Measurements published in patent US20230114728A1 (Venatorx Pharmaceuticals, Inc., priority 2019, published 2023).
≈ marks a conversion by molar mass, not a printed value.

How the values were obtained:
Experiment in all cases: Broth microdilution MIC in iron-depleted CAMHB (IDM)
Assay type in all cases: cell-based
A. baumannii ATCC 19606 = details: Acinetobacter baumannii, ATCC19606, read-out: Minimum Inhibitory Concentration, ATCC 19606
Procedure, shortened: (§1)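 Colonies grow 3-5 h in iron-depleted broth at 37° C, are adjusted by OD600 to give 2-8×10^5 CFU/mL, and are added to 2-fold serial compound dilutions. After 16-20 h (Pseudomonas) or 20-24 h (Acinetobacter) at 37° C, the lowest concentration with no visible growth is the MIC.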

[1] = system: P. aeruginosa CDC-0054 producing VIM-4, OXA-50, and PAO; details: Pseudomonas aeruginosa, read-out: Minimum Inhibitory Concentration, P. aeruginosa CDC-0054
Procedure, shortened: as §1

[2] = system: P. aeruginosa CDC-0090 producing KPC-5, OXA-50, and PAO; details: Pseudomonas aeruginosa, read-out: Minimum Inhibitory Concentration, P. aeruginosa CDC-0090
Procedure, shortened: as §1

[3] = system: A. baumannii CDC-0083 producing NDM-1, PER-7, OXA-23, and OXA-69; details: Acinetobacter baumannii, read-out: Minimum Inhibitory Concentration, CDC-0083
Procedure, shortened: as §1

[4] = system: A. baumannii CDC-0033 producing NDM-1, and OXA-94; details: Acinetobacter baumannii, read-out: Minimum Inhibitory Concentration, CDC-0033
Procedure, shortened: as §1

[5] = system: A. baumannii IL123 (ABΔ3-ARAEcPore); details: Acinetobacter baumannii, read-out: Minimum Inhibitory Concentration, IL-2123
Procedure, shortened: as §1

[6] = system: A. baumannii CDC-0036 OXA-65, and OXA-24; details: Acinetobacter baumannii, read-out: Minimum Inhibitory Concentration, CDC-0036
Procedure, shortened: as §1

[7] = system: P. aeruginosa (ΔmexAB-oprM); details: Pseudomonas aeruginosa, read-out: Minimum Inhibitory Concentration, P. aeruginosa ΔmexAB-OprM
Procedure, shortened: as §1

A. baumannii ATCC 17978 = details: Acinetobacter baumannii, ATCC17978, read-out: Minimum Inhibitory Concentration, ATCC 17978
Procedure, shortened: as §1

## O=C(NC(C(=O)N[C@H]1Cc2ccc(F)c(C(=O)O)c2OB1O)c1ncc(O)cc1F)c1ccc(O)c(O)c1Cl (stereo partly drawn) [Example 8, (3R)-3-(2-(2-chloro-3,4-dihydroxybenzamido)-2-(3-fluoro-5-hydroxypyridin-2-yl)acetamido)-7-fluoro-2-hydroxy-3,4-dihydro-2H-benzo[e][1,2]oxaborinine-8-carboxylic acid]
A. baumannii ATCC 19606
  MIC: 32 to 64 mg/L (≈ 56.8 to 114 µM)
[1]
  MIC: 2 to 4 mg/L (≈ 3.55 to 7.1 µM)
[2]
  MIC: 0.25 mg/L (≈ 0.444 µM)
[3]
  MIC: 32 to 64 mg/L (≈ 56.8 to 114 µM)
[4]
  MIC: 32 to 64 mg/L (≈ 56.8 to 114 µM)
[5]
  MIC: 32 to 64 mg/L (≈ 56.8 to 114 µM)
[6]
  MIC: 32 to 64 mg/L (≈ 56.8 to 114 µM)
[7]
  MIC: 2 to 4 mg/L (≈ 3.55 to 7.1 µM)
A. baumannii ATCC 17978
  MIC: 2 to 4 mg/L (≈ 3.55 to 7.1 µM)

## O=C(O)c1ccc(C(NC(=O)N2CCN(CCNC(=O)c3ccc(O)c(O)c3Cl)C(=O)C2=O)C(=O)N[C@H]2Cc3ccc(F)c(C(=O)O)c3OB2O)cc1F (stereo partly drawn) [Example 11, (3R)-3-(2-(4-carboxy-3-fluorophenyl)-2-(4-(2-(2-chloro-3,4-dihydroxybenzamido)ethyl)-2,3-dioxopiperazine-1-carboxamido)acetamido)-7-fluoro-2-hydroxy-3,4-dihydro-2H-benzo[e][1,2]oxaborinine-8-carboxylic acid]
A. baumannii ATCC 19606
  MIC: > 128 mg/L
[7]
  MIC: 0.5 to 1 mg/L (≈ 0.646 to 1.29 µM)

## CS(=O)(=O)N1CCN(C(=O)NC(C(=O)N[C@H]2Cc3ccc(F)c(C(=O)O)c3OB2O)c2ccc(O)c(O)c2Cl)C1=O (stereo partly drawn) [Example 23, (3R)-3-(2-(2-chloro-3,4-dihydroxyphenyl)-2-(3-(methylsulfonyl)-2-oxoimidazolidine-1-carboxamido)acetamido)-7-fluoro-2-hydroxy-3,4-dihydro-2H-benzo[e][1,2]oxaborinine-8-carboxylic acid]
A. baumannii ATCC 19606
  MIC: 0.25 mg/L (≈ 0.407 µM)
[1]
  MIC: 0.5 to 1 mg/L (≈ 0.813 to 1.63 µM)
[2]
  MIC: 0.5 to 1 mg/L (≈ 0.813 to 1.63 µM)
[3]
  MIC: 0.5 to 1 mg/L (≈ 0.813 to 1.63 µM)
[4]
  MIC: 8 to 16 mg/L (≈ 13 to 26 µM)
[6]
  MIC: 8 to 16 mg/L (≈ 13 to 26 µM)
[7]
  MIC: 0.25 mg/L (≈ 0.407 µM)
A. baumannii ATCC 17978
  MIC: 0.25 mg/L (≈ 0.407 µM)

## NC(C(=O)N[C@H]1Cc2ccc(F)c(C(=O)O)c2OB1O)c1c(F)cc(O)c(O)c1Cl (stereo partly drawn) [Example 25, (3R)-3-(2-amino-2-(2-chloro-6-fluoro-3,4-dihydroxyphenyl)acetamido)-7-fluoro-2-hydroxy-3,4-dihydro-2H-benzo[e][1,2]oxaborinine-8-carboxylic acid]
A. baumannii ATCC 19606
  MIC: 32 to 64 mg/L (≈ 72.3 to 145 µM)
[1]
  MIC: 32 to 64 mg/L (≈ 72.3 to 145 µM)
[2]
  MIC: 32 to 64 mg/L (≈ 72.3 to 145 µM)
[3]
  MIC: 32 to 64 mg/L (≈ 72.3 to 145 µM)
[4]
  MIC: 32 to 64 mg/L (≈ 72.3 to 145 µM)
[6]
  MIC: 32 to 64 mg/L (≈ 72.3 to 145 µM)
[7]
  MIC: 32 to 64 mg/L (≈ 72.3 to 145 µM)
A. baumannii ATCC 17978
  MIC: 32 to 64 mg/L (≈ 72.3 to 145 µM)

## O=C(O)c1ccc(C(NC(=O)c2c(F)cc(O)c(O)c2Cl)C(=O)N[C@H]2Cc3ccc(F)c(C(=O)O)c3OB2O)cc1F (stereo partly drawn) [Example 71, (3R)-3-(2-(4-carboxy-3-fluorophenyl)-2-(2-chloro-6-fluoro-3,4-dihydroxybenzamido)acetamido)-7-fluoro-2-hydroxy-3,4-dihydro-2H-benzo[e][1,2]oxaborinine-8-carboxylic acid]
A. baumannii ATCC 19606
  MIC: 32 to 64 mg/L (≈ 52.6 to 105 µM)
[1]
  MIC: 0.5 to 1 mg/L (≈ 0.821 to 1.64 µM)
[2]
  MIC: 2 to 4 mg/L (≈ 3.29 to 6.57 µM)
[3]
  MIC: 32 to 64 mg/L (≈ 52.6 to 105 µM)
[4]
  MIC: 32 to 64 mg/L (≈ 52.6 to 105 µM)
[6]
  MIC: 32 to 64 mg/L (≈ 52.6 to 105 µM)
[7]
  MIC: 0.25 mg/L (≈ 0.411 µM)
A. baumannii ATCC 17978
  MIC: 32 to 64 mg/L (≈ 52.6 to 105 µM)

## CCN1CCN(C(=O)NC(C(=O)N[C@H]2Cc3cccc(C(=O)O)c3OB2O)c2cccc(NC(=O)c3ccc(O)c(O)c3Cl)c2)C(=O)C1=O (stereo partly drawn) [Example 73, (3R)-3-(2-(3-(2-chloro-3,4-dihydroxybenzamido)phenyl)-2-(4-ethyl-2,3-dioxopiperazine-1-carboxamido)acetamido)-2-hydroxy-3,4-dihydro-2H-benzo[e][1,2]oxaborinine-8-carboxylic acid]
A. baumannii ATCC 19606
  MIC: 2 to 4 mg/L (≈ 2.88 to 5.76 µM)
[1]
  MIC: 2 to 4 mg/L (≈ 2.88 to 5.76 µM)
[2]
  MIC: 2 to 4 mg/L (≈ 2.88 to 5.76 µM)
[3]
  MIC: 32 to 64 mg/L (≈ 46.1 to 92.2 µM)
[4]
  MIC: 32 to 64 mg/L (≈ 46.1 to 92.2 µM)
[6]
  MIC: 32 to 64 mg/L (≈ 46.1 to 92.2 µM)
[7]
  MIC: 0.25 mg/L (≈ 0.36 µM)
A. baumannii ATCC 17978
  MIC: 2 to 4 mg/L (≈ 2.88 to 5.76 µM)

## CCN1CCN(C(=O)NC(C(=O)N[C@H]2Cc3cccc(C(=O)O)c3OB2O)c2ccc(O)c(NC(=O)c3ccc(O)c(O)c3Cl)c2)C(=O)C1=O (stereo partly drawn) [Example 74, (3R)-3-(2-(3-(2-chloro-3,4-dihydroxybenzamido)-4-hydroxyphenyl)-2-(4-ethyl-2,3-dioxopiperazine-1-carboxamido)acetamido)-2-hydroxy-3,4-dihydro-2H-benzo[e][1,2]oxaborinine-8-carboxylic acid]
A. baumannii ATCC 19606
  MIC: 32 to 64 mg/L (≈ 45.1 to 90.2 µM)
[1]
  MIC: 0.5 to 1 mg/L (≈ 0.704 to 1.41 µM)
[2]
  MIC: 32 to 64 mg/L (≈ 45.1 to 90.2 µM)
[3]
  MIC: 32 to 64 mg/L (≈ 45.1 to 90.2 µM)
[4]
  MIC: 32 to 64 mg/L (≈ 45.1 to 90.2 µM)
[6]
  MIC: 32 to 64 mg/L (≈ 45.1 to 90.2 µM)
[7]
  MIC: 0.5 to 1 mg/L (≈ 0.704 to 1.41 µM)
A. baumannii ATCC 17978
  MIC: 32 to 64 mg/L (≈ 45.1 to 90.2 µM)

## CC(C)(C)[C@@H](NC(=O)N1CCN(CCNC(=O)c2c(F)cc(O)c(O)c2Cl)C(=O)C1=O)C(=O)N[C@H]1Cc2ccc(F)c(C(=O)O)c2OB1O [Example 80, (R)-3-((R)-2-(4-(2-(2-chloro-6-fluoro-3,4-dihydroxybenzamido)ethyl)-2,3-dioxopiperazine-1-carboxamido)-3,3-dimethylbutanamido)-7-fluoro-2-hydroxy-3,4-dihydro-2H-benzo[e][1,2]oxaborinine-8-carboxylic acid]
A. baumannii ATCC 19606
  MIC: 2 to 4 mg/L (≈ 2.82 to 5.63 µM)
[1]
  MIC: 2 to 4 mg/L (≈ 2.82 to 5.63 µM)
[2]
  MIC: 2 to 4 mg/L (≈ 2.82 to 5.63 µM)
[3]
  MIC: 32 to 64 mg/L (≈ 45.1 to 90.2 µM)
[4]
  MIC: 8 to 16 mg/L (≈ 11.3 to 22.5 µM)
[6]
  MIC: 8 to 16 mg/L (≈ 11.3 to 22.5 µM)
[7]
  MIC: 0.25 mg/L (≈ 0.352 µM)
A. baumannii ATCC 17978
  MIC: 0.5 to 1 mg/L (≈ 0.704 to 1.41 µM)
